Experiments:
[1] = biological target: Mitogen-activated protein kinase 14 (Homo sapiens) (UniProt Q16539); assay: Inhibition of human truncated p38 alpha expressed in Escherichia coli cell assessed as substrate phosphorylation using fluorescence-labelled peptides as substrate at 70 uM after 90 mins by microfluidic peptide phosphorylation assay
[2] = biological target: Tyrosine-protein kinase ABL1 (Homo sapiens) (UniProt P00519); assay: Inhibition of human full-length ABL expressed in baculovirus assessed as substrate phosphorylation using fluorescence-labelled peptides as substrate at 0.2 uM after 90 mins by microfluidic peptide phosphorylation assay
Tyrosine-protein kinase ABL1 (Homo sapiens), sequence (P00519 whole entry, the tested form may be a part): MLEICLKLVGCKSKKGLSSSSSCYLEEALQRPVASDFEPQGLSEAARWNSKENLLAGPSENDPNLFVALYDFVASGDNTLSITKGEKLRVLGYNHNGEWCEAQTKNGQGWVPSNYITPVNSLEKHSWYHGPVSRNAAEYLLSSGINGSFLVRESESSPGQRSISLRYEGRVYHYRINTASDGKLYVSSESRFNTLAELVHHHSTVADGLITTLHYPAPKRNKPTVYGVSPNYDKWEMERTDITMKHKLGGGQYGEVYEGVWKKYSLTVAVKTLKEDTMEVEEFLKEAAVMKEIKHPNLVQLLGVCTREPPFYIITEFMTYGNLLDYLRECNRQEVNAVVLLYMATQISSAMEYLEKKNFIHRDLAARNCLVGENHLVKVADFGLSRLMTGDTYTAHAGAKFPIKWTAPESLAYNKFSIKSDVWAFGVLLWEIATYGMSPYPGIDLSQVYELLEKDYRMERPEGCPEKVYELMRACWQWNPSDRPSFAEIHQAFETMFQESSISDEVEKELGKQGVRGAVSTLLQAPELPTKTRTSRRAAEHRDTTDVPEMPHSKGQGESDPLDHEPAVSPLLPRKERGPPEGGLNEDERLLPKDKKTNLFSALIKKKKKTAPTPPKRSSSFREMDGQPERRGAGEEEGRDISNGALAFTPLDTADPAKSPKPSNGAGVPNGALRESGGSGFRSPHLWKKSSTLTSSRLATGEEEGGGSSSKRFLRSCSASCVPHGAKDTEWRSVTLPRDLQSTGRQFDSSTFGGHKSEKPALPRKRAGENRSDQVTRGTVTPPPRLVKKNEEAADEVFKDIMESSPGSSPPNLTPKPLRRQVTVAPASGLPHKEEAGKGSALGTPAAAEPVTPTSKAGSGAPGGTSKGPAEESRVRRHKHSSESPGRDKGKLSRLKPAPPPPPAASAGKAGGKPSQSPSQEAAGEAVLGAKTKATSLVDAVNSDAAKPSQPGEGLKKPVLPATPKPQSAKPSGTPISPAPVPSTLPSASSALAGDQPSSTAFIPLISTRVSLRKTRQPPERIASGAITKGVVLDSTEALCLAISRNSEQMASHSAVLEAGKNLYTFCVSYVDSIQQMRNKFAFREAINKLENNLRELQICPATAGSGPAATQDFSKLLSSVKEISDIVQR

[3] = biological target: Calcium/calmodulin-dependent protein kinase type II subunit beta (Homo sapiens) (UniProt Q13554); assay: Inhibition of human CAMK2 beta catalytic domain expressed in baculovirus assessed as substrate phosphorylation using fluorescence-labelled peptides as substrate at 0.2 uM after 90 mins by microfluidic peptide phosphorylation assay
Calcium/calmodulin-dependent protein kinase type II subunit beta (Homo sapiens), sequence (Q13554 whole entry, the tested form may be a part): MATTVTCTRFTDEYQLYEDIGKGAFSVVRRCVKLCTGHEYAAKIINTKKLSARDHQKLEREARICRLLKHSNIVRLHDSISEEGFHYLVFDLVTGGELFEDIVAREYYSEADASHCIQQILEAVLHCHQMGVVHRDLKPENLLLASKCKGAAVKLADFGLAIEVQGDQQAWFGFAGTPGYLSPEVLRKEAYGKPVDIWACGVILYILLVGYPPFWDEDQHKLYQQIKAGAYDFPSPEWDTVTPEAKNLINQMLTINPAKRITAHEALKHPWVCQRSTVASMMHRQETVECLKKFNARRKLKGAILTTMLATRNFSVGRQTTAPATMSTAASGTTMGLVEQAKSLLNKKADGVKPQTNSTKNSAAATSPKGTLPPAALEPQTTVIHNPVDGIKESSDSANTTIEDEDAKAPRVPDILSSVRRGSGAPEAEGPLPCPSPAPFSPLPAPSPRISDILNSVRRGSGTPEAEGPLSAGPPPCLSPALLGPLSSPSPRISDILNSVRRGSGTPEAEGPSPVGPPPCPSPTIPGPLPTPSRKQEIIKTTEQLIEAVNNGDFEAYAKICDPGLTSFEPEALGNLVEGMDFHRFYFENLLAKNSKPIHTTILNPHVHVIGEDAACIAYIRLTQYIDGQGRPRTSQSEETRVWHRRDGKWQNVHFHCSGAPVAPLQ

[4] = biological target: T1, Serine/threonine-protein kinase Sgk1 (Homo sapiens) (UniProt O00141); assay: Inhibition of human truncated SGK1 expressed in baculovirus assessed as substrate phosphorylation using fluorescence-labelled peptides as substrate at 95 uM after 90 mins by microfluidic peptide phosphorylation assay
T1 sequence (whole entry): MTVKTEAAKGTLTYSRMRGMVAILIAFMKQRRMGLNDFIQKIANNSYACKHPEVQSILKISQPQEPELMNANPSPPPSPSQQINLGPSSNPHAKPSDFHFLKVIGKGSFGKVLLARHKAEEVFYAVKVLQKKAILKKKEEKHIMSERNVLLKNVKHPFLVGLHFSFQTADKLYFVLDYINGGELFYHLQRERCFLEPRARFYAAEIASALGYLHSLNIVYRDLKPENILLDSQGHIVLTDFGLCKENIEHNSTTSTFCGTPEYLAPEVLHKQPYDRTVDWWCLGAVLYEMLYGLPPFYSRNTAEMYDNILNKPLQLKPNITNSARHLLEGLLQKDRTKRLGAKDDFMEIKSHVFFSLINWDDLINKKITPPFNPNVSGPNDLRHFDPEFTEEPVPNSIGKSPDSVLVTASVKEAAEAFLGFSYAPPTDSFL

[5] = biological target: Fibroblast growth factor receptor 2 (Homo sapiens) (UniProt P21802); assay: Inhibition of human FGFR2 catalytic domain expressed in baculovirus assessed as substrate phosphorylation using fluorescence-labelled peptides as substrate at 95 uM after 90 mins by microfluidic peptide phosphorylation assay
Fibroblast growth factor receptor 2 (Homo sapiens), sequence (P21802 22-821 limits assumed): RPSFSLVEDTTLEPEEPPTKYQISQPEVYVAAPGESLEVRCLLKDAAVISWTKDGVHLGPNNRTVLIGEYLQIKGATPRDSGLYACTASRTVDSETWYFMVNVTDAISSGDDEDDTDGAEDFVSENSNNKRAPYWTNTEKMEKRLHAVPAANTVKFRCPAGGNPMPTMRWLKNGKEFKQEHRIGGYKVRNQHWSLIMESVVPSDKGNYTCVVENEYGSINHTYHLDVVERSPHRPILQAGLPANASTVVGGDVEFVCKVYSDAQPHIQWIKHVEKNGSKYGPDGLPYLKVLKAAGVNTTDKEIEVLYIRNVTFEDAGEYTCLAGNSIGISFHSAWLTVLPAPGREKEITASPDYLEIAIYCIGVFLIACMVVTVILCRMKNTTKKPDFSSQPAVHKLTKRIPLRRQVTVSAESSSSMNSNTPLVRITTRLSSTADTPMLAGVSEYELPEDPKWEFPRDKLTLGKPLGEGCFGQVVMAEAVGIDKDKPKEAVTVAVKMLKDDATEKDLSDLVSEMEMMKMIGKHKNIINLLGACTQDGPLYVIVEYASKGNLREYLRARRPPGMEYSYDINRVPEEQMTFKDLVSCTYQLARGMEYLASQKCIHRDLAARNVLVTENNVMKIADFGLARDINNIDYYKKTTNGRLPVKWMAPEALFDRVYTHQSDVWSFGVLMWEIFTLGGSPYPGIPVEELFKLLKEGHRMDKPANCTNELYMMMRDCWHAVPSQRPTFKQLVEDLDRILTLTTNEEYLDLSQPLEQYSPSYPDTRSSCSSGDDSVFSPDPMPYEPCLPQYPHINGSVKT

[6] = biological target: Serine/threonine-protein kinase MARK1 (Homo sapiens) (UniProt Q9P0L2); assay: Inhibition of human full length MARK1 expressed in baculovirus assessed as substrate phosphorylation using fluorescence-labelled peptides as substrate at 1000 uM after 90 mins by microfluidic peptide phosphorylation assay
Serine/threonine-protein kinase MARK1 (Homo sapiens), sequence (Q9P0L2 whole entry, looked up, the tested form may be a part): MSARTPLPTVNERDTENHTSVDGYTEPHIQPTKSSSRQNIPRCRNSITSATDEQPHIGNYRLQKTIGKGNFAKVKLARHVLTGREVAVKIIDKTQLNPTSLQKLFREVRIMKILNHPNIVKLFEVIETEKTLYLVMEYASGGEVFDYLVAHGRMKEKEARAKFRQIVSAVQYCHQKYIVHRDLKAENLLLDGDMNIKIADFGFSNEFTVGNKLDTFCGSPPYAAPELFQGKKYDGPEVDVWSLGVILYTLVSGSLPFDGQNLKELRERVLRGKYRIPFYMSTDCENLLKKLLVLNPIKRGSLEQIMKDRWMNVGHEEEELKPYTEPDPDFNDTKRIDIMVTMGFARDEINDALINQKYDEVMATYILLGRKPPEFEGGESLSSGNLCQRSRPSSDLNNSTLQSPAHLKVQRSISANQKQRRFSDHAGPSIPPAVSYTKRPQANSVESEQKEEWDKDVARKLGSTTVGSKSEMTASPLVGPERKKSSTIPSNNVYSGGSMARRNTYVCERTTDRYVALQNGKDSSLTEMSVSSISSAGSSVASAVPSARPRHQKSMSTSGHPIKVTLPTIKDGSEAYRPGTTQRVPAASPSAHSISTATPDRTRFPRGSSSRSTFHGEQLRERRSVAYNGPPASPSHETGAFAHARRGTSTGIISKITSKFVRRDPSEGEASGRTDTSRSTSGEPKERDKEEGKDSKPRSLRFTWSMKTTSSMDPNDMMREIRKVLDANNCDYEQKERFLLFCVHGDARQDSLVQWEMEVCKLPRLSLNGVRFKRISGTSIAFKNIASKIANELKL

[7] = biological target: T2, Serine/threonine-protein kinase BRSK2 (Homo sapiens) (UniProt Q8IWQ3); assay: Inhibition of human truncated BRSK2 expressed in baculovirus assessed as substrate phosphorylation using fluorescence-labelled peptides as substrate at 1000 uM after 90 mins by microfluidic peptide phosphorylation assay
T2 sequence (whole entry): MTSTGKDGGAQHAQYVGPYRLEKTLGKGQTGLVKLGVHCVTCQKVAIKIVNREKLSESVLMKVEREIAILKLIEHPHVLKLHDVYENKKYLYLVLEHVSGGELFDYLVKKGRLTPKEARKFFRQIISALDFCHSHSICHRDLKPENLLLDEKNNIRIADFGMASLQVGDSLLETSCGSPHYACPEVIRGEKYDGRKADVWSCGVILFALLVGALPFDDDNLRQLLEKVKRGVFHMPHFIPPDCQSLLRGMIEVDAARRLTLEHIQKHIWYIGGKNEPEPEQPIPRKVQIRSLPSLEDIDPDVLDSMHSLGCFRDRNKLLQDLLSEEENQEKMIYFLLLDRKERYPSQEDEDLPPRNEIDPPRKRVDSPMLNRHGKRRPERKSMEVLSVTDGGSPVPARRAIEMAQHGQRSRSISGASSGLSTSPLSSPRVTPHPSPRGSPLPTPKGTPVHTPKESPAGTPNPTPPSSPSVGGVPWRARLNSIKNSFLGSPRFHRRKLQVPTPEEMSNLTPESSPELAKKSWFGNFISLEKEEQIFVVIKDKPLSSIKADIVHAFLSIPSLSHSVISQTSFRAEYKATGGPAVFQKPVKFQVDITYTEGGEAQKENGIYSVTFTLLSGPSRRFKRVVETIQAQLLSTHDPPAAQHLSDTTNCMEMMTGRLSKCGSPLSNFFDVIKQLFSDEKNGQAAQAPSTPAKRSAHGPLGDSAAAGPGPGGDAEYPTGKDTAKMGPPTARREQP

[8] = biological target: T3, Interleukin-1 receptor-associated kinase 4 (Homo sapiens) (UniProt Q9NWZ3); assay: Inhibition of human IRAK4 catalytic domain expressed in baculovirus assessed as substrate phosphorylation using fluorescence-labelled peptides as substrate at 8 uM after 90 mins by microfluidic peptide phosphorylation assay
T3 sequence (whole entry): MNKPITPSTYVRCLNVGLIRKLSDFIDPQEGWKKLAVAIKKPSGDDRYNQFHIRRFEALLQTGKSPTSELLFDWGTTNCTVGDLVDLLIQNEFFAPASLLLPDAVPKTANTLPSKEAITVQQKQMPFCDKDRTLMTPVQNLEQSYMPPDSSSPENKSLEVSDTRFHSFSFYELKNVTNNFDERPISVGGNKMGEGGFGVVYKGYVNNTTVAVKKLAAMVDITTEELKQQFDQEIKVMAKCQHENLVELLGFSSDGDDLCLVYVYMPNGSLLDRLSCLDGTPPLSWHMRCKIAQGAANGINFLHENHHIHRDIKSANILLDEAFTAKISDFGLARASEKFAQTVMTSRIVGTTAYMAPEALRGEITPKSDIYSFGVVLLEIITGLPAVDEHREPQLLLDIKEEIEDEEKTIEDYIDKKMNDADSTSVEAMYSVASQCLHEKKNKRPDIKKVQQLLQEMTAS

[9] = biological target: Protein kinase C beta type (Homo sapiens) (UniProt P05771); assay: Inhibition of human truncated PKC beta1 expressed in baculovirus assessed as substrate phosphorylation using fluorescence-labelled peptides as substrate at 8 uM after 90 mins by microfluidic peptide phosphorylation assay
Protein kinase C beta type (Homo sapiens), sequence (P05771 2-671 limits assumed): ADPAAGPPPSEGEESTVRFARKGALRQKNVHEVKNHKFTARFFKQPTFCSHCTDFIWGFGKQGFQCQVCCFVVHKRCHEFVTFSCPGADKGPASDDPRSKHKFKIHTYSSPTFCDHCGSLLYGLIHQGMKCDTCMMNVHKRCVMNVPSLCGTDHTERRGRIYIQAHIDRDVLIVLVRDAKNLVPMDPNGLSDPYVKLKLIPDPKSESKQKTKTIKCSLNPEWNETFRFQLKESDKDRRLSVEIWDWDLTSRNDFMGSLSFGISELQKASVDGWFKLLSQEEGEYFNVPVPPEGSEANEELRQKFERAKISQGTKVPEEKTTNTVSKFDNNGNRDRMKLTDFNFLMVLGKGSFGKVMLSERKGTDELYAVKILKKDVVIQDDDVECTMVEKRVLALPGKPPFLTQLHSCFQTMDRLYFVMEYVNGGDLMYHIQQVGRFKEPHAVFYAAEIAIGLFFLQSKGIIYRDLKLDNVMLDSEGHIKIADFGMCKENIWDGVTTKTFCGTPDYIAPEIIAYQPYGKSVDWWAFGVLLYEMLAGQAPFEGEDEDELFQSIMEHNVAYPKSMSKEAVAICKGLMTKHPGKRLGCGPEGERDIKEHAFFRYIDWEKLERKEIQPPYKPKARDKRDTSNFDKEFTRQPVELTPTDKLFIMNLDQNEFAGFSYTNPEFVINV

[10] = biological target: Fibroblast growth factor receptor 3 (Homo sapiens) (UniProt P22607); assay: Inhibition of human FGFR3 catalytic domain expressed in baculovirus assessed as substrate phosphorylation using fluorescence-labelled peptides as substrate at 0.1 uM after 90 mins by microfluidic peptide phosphorylation assay
Fibroblast growth factor receptor 3 (Homo sapiens), sequence (P22607 23-806 limits assumed): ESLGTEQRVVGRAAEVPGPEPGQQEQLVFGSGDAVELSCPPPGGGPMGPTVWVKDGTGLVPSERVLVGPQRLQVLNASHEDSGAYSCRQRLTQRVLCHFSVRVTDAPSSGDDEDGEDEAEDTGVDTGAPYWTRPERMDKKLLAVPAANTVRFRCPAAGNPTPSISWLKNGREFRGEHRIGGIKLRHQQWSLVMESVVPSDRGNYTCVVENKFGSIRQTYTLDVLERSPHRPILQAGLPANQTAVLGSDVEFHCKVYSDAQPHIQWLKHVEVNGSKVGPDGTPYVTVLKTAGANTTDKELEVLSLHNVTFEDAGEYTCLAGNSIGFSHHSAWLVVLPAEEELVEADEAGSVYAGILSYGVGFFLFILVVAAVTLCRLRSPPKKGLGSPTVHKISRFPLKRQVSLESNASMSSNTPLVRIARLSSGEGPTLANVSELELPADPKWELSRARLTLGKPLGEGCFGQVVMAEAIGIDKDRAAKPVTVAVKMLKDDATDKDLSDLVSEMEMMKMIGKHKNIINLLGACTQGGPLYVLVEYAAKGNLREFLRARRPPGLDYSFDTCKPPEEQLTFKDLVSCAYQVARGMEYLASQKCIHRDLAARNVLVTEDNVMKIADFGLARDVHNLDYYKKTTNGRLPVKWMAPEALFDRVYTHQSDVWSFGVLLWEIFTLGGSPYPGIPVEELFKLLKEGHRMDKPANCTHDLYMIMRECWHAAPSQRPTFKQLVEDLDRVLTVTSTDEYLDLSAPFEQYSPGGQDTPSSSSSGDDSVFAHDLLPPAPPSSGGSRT

## CNCc1ccc(-c2ncnc3[nH]cnc23)cc1
[1]
  inhibition: 0%

## Clc1ccc(C2(c3ccc(-c4ncnc5[nH]cnc45)cc3)CCNCC2)cc1
[2]
  inhibition: 0%
[3]
  inhibition: 11.5%

## NCCc1ccc(-c2ncnc3[nH]cnc23)cc1
[4]
  inhibition: 52.5%
[5]
  inhibition: 36%

## c1cnc2[nH]ccc2c1
[6]
  inhibition: 93.5%
[7]
  inhibition: 28%

## NCC1CCN(c2ncnc3[nH]ccc23)CC1
[8]
  inhibition: 25.5%
[9]
  inhibition: 50.5%

## C[C@H](CN(C)C)Oc1nc(Nc2cc3cccc(Cl)c3cn2)cnc1C#N
[10]
  inhibition: 5.5%
